Read-outs that look alike come from different tables or passages of the source.
Assays:
Assay in all cases: cell-based
rNav1.7 = rNav1.7 (Rattus norvegicus, UniProt O08562); conditions: for IC50: PatchXpress, tonic block, rat Nav1.7, read-out: PX rNav1.7 Tonic IC50; for rNav1.7/hNav1.7: ratio of PX tonic IC50, rat Nav1.7 over human Nav1.7
mNav1.7 = mNav1.7 (Mus musculus, UniProt Q62205); conditions: for IC50: PatchXpress, tonic block, mouse Nav1.7, read-out: PX mNav1.7 Tonic IC50; for mNav1.7/hNav1.7: ratio of PX tonic IC50, mouse Nav1.7 over human Nav1.7
hNav1.7 [1] = target: T1, hNav1.7 (Homo sapiens, UniProt Q15858); assay type: cell-based; conditions: read-out: PX hNav1.7 Tonic IC50
T1 sequence (Q15858 whole entry): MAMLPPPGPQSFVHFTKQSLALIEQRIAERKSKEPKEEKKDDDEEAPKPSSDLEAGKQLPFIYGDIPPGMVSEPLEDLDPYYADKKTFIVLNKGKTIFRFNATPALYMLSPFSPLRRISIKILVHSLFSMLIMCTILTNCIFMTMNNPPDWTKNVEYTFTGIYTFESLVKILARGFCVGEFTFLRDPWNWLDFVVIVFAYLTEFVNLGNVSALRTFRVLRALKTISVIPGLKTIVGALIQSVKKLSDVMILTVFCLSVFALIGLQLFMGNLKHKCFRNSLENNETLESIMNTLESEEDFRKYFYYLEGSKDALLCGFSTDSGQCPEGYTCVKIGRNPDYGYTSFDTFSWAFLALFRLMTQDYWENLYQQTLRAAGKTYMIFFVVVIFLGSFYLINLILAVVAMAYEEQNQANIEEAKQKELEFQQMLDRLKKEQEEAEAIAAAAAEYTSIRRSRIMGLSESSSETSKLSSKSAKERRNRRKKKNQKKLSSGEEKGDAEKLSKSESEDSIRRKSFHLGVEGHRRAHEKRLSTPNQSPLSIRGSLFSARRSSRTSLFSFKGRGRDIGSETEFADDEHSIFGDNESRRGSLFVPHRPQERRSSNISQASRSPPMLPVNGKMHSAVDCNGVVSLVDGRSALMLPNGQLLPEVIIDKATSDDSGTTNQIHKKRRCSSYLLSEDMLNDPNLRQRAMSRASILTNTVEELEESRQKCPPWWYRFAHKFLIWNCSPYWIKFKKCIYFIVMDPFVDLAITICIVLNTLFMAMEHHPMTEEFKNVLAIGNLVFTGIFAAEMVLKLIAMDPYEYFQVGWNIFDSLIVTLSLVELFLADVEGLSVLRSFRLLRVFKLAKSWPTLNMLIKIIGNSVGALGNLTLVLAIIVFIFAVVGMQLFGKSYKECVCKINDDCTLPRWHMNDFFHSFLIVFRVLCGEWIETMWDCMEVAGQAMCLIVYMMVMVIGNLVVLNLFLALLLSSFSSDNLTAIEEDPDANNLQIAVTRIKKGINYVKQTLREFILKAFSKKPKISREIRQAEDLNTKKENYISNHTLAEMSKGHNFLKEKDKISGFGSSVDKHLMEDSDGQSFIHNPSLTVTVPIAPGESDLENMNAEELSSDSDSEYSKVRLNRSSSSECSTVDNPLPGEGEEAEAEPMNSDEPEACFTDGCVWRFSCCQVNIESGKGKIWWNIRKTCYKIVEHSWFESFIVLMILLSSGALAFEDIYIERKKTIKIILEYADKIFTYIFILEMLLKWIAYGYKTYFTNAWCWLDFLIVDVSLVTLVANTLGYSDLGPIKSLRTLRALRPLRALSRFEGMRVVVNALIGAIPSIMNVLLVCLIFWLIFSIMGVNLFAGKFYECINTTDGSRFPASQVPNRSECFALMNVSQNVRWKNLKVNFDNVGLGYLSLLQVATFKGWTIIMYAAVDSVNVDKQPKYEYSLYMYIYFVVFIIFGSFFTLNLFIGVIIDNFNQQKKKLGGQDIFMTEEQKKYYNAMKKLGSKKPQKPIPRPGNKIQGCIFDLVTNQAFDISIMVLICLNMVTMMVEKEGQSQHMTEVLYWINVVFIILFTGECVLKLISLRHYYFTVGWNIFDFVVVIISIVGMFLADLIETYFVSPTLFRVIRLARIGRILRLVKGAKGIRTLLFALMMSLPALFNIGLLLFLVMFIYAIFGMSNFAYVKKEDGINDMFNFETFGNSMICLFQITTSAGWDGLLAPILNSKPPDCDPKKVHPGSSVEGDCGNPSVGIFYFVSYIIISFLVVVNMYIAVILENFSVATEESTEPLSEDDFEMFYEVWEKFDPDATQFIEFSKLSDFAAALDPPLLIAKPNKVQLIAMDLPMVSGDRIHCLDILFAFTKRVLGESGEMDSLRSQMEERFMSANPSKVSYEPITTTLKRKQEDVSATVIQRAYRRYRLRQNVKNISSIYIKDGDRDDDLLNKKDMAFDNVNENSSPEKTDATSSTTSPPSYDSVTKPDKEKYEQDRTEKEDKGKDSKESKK

hNav1.5 [2] = target: T2, hNav1.5 (Homo sapiens, UniProt Q14524); conditions: IonWorks Quattro; Table 9; read-out: IC50 (μM) Nav1.5
hNav1.7 [3] = target: T1, hNav1.7; conditions: IonWorks Quattro; […]; read-out: IC50 (μM) Nav1.7
hNav1.5 [4] = target: T2, hNav1.5
hNav1.3 = hNav1.3 (Homo sapiens, UniProt Q9NY46); conditions: IonWorks Quattro; Table 9; read-out: IC50 (μM) Nav1.3
hNav1.4 [5] = target: T3, hNav1.4 (Homo sapiens, UniProt P35499); assay type: cell-based
T3 sequence (P35499 whole entry): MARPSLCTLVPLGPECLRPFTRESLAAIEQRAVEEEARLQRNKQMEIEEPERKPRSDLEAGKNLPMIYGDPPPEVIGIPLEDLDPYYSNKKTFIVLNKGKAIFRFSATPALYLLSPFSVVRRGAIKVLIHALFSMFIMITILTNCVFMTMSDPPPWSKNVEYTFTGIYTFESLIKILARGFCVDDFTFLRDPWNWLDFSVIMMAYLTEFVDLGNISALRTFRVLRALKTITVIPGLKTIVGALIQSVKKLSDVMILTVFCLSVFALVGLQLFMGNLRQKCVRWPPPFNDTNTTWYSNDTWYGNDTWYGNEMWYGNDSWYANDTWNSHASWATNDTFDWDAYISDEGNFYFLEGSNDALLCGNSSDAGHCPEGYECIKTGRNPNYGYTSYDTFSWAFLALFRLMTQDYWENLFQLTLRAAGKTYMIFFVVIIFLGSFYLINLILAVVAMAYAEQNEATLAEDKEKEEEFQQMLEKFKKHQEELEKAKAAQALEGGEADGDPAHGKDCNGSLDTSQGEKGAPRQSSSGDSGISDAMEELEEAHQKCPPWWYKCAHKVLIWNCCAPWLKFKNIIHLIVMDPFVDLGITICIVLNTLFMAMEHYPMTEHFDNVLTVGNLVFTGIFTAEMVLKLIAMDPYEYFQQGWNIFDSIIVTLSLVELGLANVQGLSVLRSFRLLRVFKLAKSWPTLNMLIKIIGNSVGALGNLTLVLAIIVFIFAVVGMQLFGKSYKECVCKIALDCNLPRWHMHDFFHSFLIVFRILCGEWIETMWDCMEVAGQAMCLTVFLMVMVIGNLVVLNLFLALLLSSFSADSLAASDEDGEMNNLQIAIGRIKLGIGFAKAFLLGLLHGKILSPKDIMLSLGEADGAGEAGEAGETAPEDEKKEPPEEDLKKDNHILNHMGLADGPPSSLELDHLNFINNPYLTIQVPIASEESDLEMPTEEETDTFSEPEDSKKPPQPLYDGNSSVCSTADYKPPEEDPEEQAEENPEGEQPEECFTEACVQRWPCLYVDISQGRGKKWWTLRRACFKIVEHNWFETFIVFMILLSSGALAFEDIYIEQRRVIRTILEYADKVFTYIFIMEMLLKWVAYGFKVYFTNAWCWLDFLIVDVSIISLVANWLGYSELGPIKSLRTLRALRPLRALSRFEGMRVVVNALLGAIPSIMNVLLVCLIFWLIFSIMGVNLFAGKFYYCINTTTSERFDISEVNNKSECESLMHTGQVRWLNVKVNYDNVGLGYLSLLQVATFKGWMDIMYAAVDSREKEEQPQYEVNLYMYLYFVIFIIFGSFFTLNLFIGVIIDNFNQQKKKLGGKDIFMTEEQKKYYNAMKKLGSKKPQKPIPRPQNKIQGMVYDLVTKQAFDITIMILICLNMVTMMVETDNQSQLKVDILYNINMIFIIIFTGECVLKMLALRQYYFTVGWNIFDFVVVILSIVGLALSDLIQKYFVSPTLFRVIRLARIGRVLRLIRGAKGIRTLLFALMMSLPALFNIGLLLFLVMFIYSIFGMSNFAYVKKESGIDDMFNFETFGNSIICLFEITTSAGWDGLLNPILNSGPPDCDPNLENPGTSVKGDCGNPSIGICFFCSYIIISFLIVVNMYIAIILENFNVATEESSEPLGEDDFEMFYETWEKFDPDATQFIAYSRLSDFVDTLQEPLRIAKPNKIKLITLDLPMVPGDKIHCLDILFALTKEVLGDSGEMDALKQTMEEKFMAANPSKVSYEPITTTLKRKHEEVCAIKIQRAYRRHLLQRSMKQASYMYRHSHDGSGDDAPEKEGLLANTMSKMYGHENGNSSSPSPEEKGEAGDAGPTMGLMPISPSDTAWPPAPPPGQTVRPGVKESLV

hNav1.4 [6] = target: T3, hNav1.4; assay type: cell-based; conditions: Table 9
[7] = PatchXpress, tonic block, human Nav1.7
[8] = Table 13, ratio of PX tonic IC50 values

SMILES	IC50 (rNav1.7) [nM]	rNav1.7/hNav1.7 (rNav1.7)	IC50 (mNav1.7) [nM]	mNav1.7/hNav1.7 (mNav1.7)	IC50 (hNav1.7 [1]; [7]) [nM]	other results
C#CC[C@H](NC(=O)[C@@H](N)CCC(=O)O)C(=O)N[C@H]1CSSC[C@@H]2NC(=O)[C@@H]3CSSC[C@@H](C(=O)N[C@@H](CCCNC(=N)N)C(=O)N[C@@H](CCCCN)C(=O)N[C@@H](CCC(=O)O)C(=O)N[C@H](C(N)=O)[C@@H](C)CC)NC(=O)[C@H](Cc4c[nH]c5ccccc45)NC(=O)[C@H](CC(C)C)NC(=O)[C@H](CCCCN)NC(=O)[C@H](CSSC[C@H](NC(=O)[C@H]([C@@H](C)O)NC(=O)[C@H](Cc4c[nH]c5ccccc45)NC(=O)[C@H](CCCC)NC(=O)[C@H](Cc4c[nH]c5ccccc45)NC(=O)[C@H](CCCCN)NC(=O)[C@H](CCC(N)=O)NC1=O)C(=O)N[C@@H](CC(=O)O)C(=O)N[C@@H](CO)C(=O)N[C@@H](CCCCN)C(=O)N[C@@H](CCCNC(=N)N)C(=O)N[C@@H](CCC(=O)O)C(=O)N3)NC(=O)[C@H](CCCNC(=N)N)NC(=O)[C@H](CC(C)C)NC(=O)CNC(=O)[C@H](CCC(=O)O)NC2=O [Glu-[Pra1; Nle6; Glu14, 28]JzTx-V(1-29)]	3.34	5.94	16.1	28.63		
CCCC[C@@H]1NC(=O)[C@H](Cc2c[nH]c3ccccc23)NC(=O)[C@H](CCCCN)NC(=O)[C@H](CCC(N)=O)NC(=O)[C@@H](NC(=O)[C@H](Cc2ccc(O)cc2)NC(=O)[C@H](N)CC(C)C)CSSC[C@@H]2NC(=O)[C@@H]3CSSC[C@@H](C(=O)N[C@@H](CCCNC(=N)N)C(=O)N[C@@H](CCCCN)C(=O)N[C@H](C(=O)N[C@H](C(N)=O)[C@@H](C)CC)[C@@H](C)CC)NC(=O)[C@H](Cc4c[nH]c5ccccc45)NC(=O)[C@H](CC(C)C)NC(=O)[C@H](CCCCN)NC(=O)[C@H](CSSC[C@H](NC(=O)[C@H]([C@@H](C)O)NC(=O)[C@H](Cc4c[nH]c5ccccc45)NC1=O)C(=O)N[C@@H](CC(=O)O)C(=O)N[C@@H](CO)C(=O)N[C@@H](CCCCN)C(=O)N[C@@H](CCCNC(=N)N)C(=O)N[C@@H](C)C(=O)N3)NC(=O)[C@H](CCCNC(=N)N)NC(=O)[C@H](CC(C)C)NC(=O)CNC(=O)[C@H](CCC(=O)O)NC2=O [D-Leu-[Nle6]JzTx-V(1-29)]			12.6	84.00	0.15	
C#CC[C@H](N)C(=O)N[C@@H](Cc1ccc(O)cc1)C(=O)N[C@H]1CSSC[C@@H]2NC(=O)[C@@H]3CSSC[C@@H](C(=O)N[C@@H](CCCNC(=N)N)C(=O)N[C@@H](CCCCN)C(=O)N[C@@H](CCC(=O)O)C(=O)N[C@H](C(N)=O)[C@@H](C)CC)NC(=O)[C@H](Cc4c[nH]c5ccc(Br)cc45)NC(=O)[C@H](CC(C)C)NC(=O)[C@H](CCCCN)NC(=O)[C@H](CSSC[C@H](NC(=O)[C@H]([C@@H](C)O)NC(=O)[C@H](Cc4c[nH]c5ccccc45)NC(=O)[C@H](CCCC)NC(=O)[C@H](Cc4c[nH]c5ccccc45)NC(=O)[C@H](CCCCN)NC(=O)[C@H](CCC(N)=O)NC1=O)C(=O)N[C@@H](CC(=O)O)C(=O)N[C@@H](CO)C(=O)N[C@@H](CCCCN)C(=O)N[C@@H](CCCNC(=N)N)C(=O)N[C@@H](C)C(=O)N3)NC(=O)[C@H](CCCNC(=N)N)NC(=O)[C@H](CC(C)C)NC(=O)CNC(=O)[C@H](CCC(=O)O)NC2=O [Pra-[Nle6; 5-BrW24; Glu28]JzTx-V(1-29)]	2.43	62.26	0.911	23.34		
CCCC[C@@H]1NC(=O)[C@H](Cc2c[nH]c3ccccc23)NC(=O)[C@H](CCCCN)NC(=O)[C@H](CCC(N)=O)NC(=O)[C@@H](NC(=O)[C@H](Cc2ccc(O)cc2)NC(=O)[C@@H](N)Cc2c[nH]c3ccccc23)CSSC[C@@H]2NC(=O)[C@@H]3CSSC[C@@H](C(=O)N[C@@H](CCCNC(=N)N)C(=O)N[C@@H](CCCCN)C(=O)N[C@H](C(=O)N[C@H](C(N)=O)[C@@H](C)CC)[C@@H](C)CC)NC(=O)[C@H](Cc4c[nH]c5ccccc45)NC(=O)[C@H](CC(C)C)NC(=O)[C@H](CCCCN)NC(=O)[C@H](CSSC[C@H](NC(=O)[C@H]([C@@H](C)O)NC(=O)[C@H](Cc4c[nH]c5ccccc45)NC1=O)C(=O)N[C@@H](CC(=O)O)C(=O)N[C@@H](CO)C(=O)N[C@@H](CCCCN)C(=O)N[C@@H](CCCNC(=N)N)C(=O)N[C@@H](C)C(=O)N3)NC(=O)[C@H](CCCNC(=N)N)NC(=O)[C@H](CC(C)C)NC(=O)CNC(=O)[C@H](CCC(=O)O)NC2=O [Trp-[Nle6]JzTx-V(1-29)]			1.34	4.07	0.33	
CCCC[C@@H]1NC(=O)[C@H](Cc2c[nH]c3ccccc23)NC(=O)[C@H](CCCCN)NC(=O)[C@H](CCC(N)=O)NC(=O)[C@@H](NC(=O)[C@H](Cc2ccc(O)cc2)NC(=O)[C@@H](N)CC#N)CSSC[C@@H]2NC(=O)[C@@H]3CSSC[C@@H](C(=O)N[C@@H](CCCNC(=N)N)C(=O)N[C@@H](CCCCN)C(=O)N[C@H](C(=O)N[C@H](C(N)=O)[C@@H](C)CC)[C@@H](C)CC)NC(=O)[C@H](Cc4c[nH]c5ccccc45)NC(=O)[C@H](CC(C)C)NC(=O)[C@H](CCCCN)NC(=O)[C@H](CSSC[C@H](NC(=O)[C@H]([C@@H](C)O)NC(=O)[C@H](Cc4c[nH]c5ccccc45)NC1=O)C(=O)N[C@@H](CC(=O)O)C(=O)N[C@@H](CO)C(=O)N[C@@H](CCCCN)C(=O)N[C@@H](CCCNC(=N)N)C(=O)N[C@@H](C)C(=O)N3)NC(=O)[C@H](CCCNC(=N)N)NC(=O)[C@H](CC(C)C)NC(=O)CNC(=O)[C@H](CCC(=O)O)NC2=O [CyA-[Nle6]JzTx-V(1-29)]			0.957	3.09	0.31	
CCCC[C@@H]1NC(=O)[C@H](Cc2c[nH]c3ccccc23)NC(=O)[C@H](CCCCN)NC(=O)[C@H](CCC(N)=O)NC(=O)[C@@H](NC(=O)[C@H](Cc2ccc(O)cc2)NC(=O)[C@@H](N)CC#N)CSSC[C@@H]2NC(=O)[C@@H]3CSSC[C@@H](C(=O)N[C@@H](CCCNC(=N)N)C(=O)N[C@@H](CCCCN)C(=O)N[C@@H](CCC(=O)O)C(=O)N[C@H](C(N)=O)[C@@H](C)CC)NC(=O)[C@H](Cc4c[nH]c5ccccc45)NC(=O)[C@H](CC(C)C)NC(=O)[C@H](CCCCN)NC(=O)[C@H](CSSC[C@H](NC(=O)[C@H]([C@@H](C)O)NC(=O)[C@H](Cc4c[nH]c5ccccc45)NC1=O)C(=O)N[C@@H](CC(=O)O)C(=O)N[C@@H](CO)C(=O)N[C@@H](CCCCN)C(=O)N[C@@H](CCCNC(=N)N)C(=O)N[C@@H](C)C(=O)N3)NC(=O)[C@H](CCCNC(=N)N)NC(=O)[C@H](CC(C)C)NC(=O)CNC(=O)[C@H](Cc1cn(CCCOCCOCCOCCOCCOCCOCCOCCOCCOCCOCCN)nn1)NC2=O		0.46		2.23		
CCCC[C@@H]1NC(=O)[C@H](Cc2c[nH]c3ccccc23)NC(=O)[C@H](CCCCN)NC(=O)[C@H](CCC(N)=O)NC(=O)[C@@H](NC(=O)[C@H](Cc2ccc(O)cc2)NC(=O)[C@@H](N)Cc2cn(CCCOCCOCCOCCOCCOCCOCCOCCOCCOCCOCCN)nn2)CSSC[C@@H]2NC(=O)[C@@H]3CSSC[C@@H](C(=O)N[C@@H](CCCNC(=N)N)C(=O)N[C@@H](CCCCN)C(=O)N[C@H](C(=O)N[C@H](C(N)=O)[C@@H](C)CC)[C@@H](C)CC)NC(=O)[C@H](Cc4c[nH]c5ccccc45)NC(=O)[C@H](CC(C)C)NC(=O)[C@H](CCCCN)NC(=O)[C@H](CSSC[C@H](NC(=O)[C@H]([C@@H](C)O)NC(=O)[C@H](Cc4c[nH]c5ccccc45)NC1=O)C(=O)N[C@@H](CC(=O)O)C(=O)N[C@@H](CO)C(=O)N[C@@H](CCCCN)C(=O)N[C@@H](CCCNC(=N)N)C(=O)N[C@@H](C)C(=O)N3)NC(=O)[C@H](CCCNC(=N)N)NC(=O)[C@H](CC(C)C)NC(=O)CNC(=O)[C@H](CCC(=O)O)NC2=O [compound 247]						IC50 (hNav1.5 [2]): 4.3 µM; IC50 (hNav1.7 [3]): 0.07 µM; Nav1.5/Nav1.7 (hNav1.5 [4]; [8]): 629; IC50 (hNav1.5 [4]; read-out: PX hNav1.5 Tonic IC50): 3770 nM; IC50 (hNav1.3): 0.13 µM; Nav1.4/Nav1.7 (hNav1.4 [5]; [8]): 1; IC50 (hNav1.4 [5]; read-out: PX hNav1.4 Tonic IC50): 8 nM; IC50 (hNav1.4 [6]; IonWorks Quattro, read-out: IC50 (μM) Nav1.4): 0.15 µM; Nav1.4/Nav1.7 (hNav1.4 [6]; ratio of IonWorks Quattro IC50 values): 2; IC50 (hNav1.7 [1]): 6 nM
C#CC[C@H](N)C(=O)N[C@@H](Cc1ccc(O)cc1)C(=O)N[C@H]1CSSC[C@@H]2NC(=O)[C@@H]3CSSC[C@@H](C(=O)N[C@@H](CCCNC(=N)N)C(=O)N[C@@H](CCCCN)C(=O)N[C@@H](CCC(=O)O)C(=O)N[C@H](C(N)=O)[C@@H](C)CC)NC(=O)[C@H](Cc4c[nH]c5ccccc45)NC(=O)[C@H](C4CCCCC4)NC(=O)[C@H](CCCCN)NC(=O)[C@H](CSSC[C@H](NC(=O)[C@H]([C@@H](C)O)NC(=O)[C@H](Cc4c[nH]c5ccccc45)NC(=O)[C@H](CCCC)NC(=O)[C@H](Cc4c[nH]c5ccccc45)NC(=O)[C@H](CCCCN)NC(=O)[C@H](CCC(N)=O)NC1=O)C(=O)N[C@@H](CC(=O)O)C(=O)N[C@@H](CO)C(=O)N[C@@H](CCCCN)C(=O)N[C@@H](CCCNC(=N)N)C(=O)N[C@@H](C)C(=O)N3)NC(=O)[C@H](CCCNC(=N)N)NC(=O)[C@H](CC(C)C)NC(=O)CNC(=O)[C@H](CCC(=O)O)NC2=O [Pra-[Nle6; Chg23; Glu28]JzTx-V(1-29)]	3.27	6.68	0.884	1.81		

— patent US10344060B2 (priority 2013, dated 2019)
